From patent publication US20230097603A1, “NICOTINAMIDE MONONUCLEOTIDE DERIVATIVES FOR THE TREATMENT OF ARRHYTHMIA” (NUVAMID SA, priority 2020, published 2023)
“Also recorded” adds a separate entry of the source.

Legend:
[1] = test system: ischaemia-reperfusion rat; experiment: Arrhythmia induced by ischaemia-reperfusion in anaesthetised rats; format: in vivo; settings: for ventricular fibrillation during the ischaemia (effect in words) / ventricular tachycardia during the ischaemia (effect in words) / incidence of ventricular tachycardia during reperfusion (effect in words) / duration of ventricular tachycardia during reperfusion (effect in words) / ventricular fibrillation during reperfusion (effect in words) / mortality during the reperfusion period (effect in words): iv; for ventricular fibrillation during the ischaemia (effect in words) / ventricular tachycardia during the ischaemia (effect in words): I-C 185 mg/kg 30 min before, cariporide 0.3 mg/kg 5 min before ischaemia; for incidence of ventricular tachycardia during reperfusion (effect in words) / duration of ventricular tachycardia during reperfusion (effect in words) / ventricular fibrillation during reperfusion (effect in words) / mortality during the reperfusion period (effect in words): I-C 185 mg/kg, cariporide 0.3 mg/kg; for duration of ventricular tachycardia during reperfusion (effect in words) / ventricular fibrillation during reperfusion (effect in words): vs carrier; for mortality during the reperfusion period (effect in words): carrier group 25% death
Description: Arrhythmias were obtained in an acute model of ischaemia-reperfusion in rats.
The rats were first anaesthetised, then intubated and mechanically ventilated, before being prepared for surgery.
Catheters were then placed in the carotid artery in order to measure the arterial pressure and in the caudal vein for the perfusion of drugs. The arterial catheter consists in a catheter filled with fluid which sends the pressure to a transducer located nearby. The mean arterial pressure is calculated electronically and recorded continuously.
A three-lead electrocardiogram (ECG) was recorded throughout the procedure by means of needle electrodes attached to the limbs.
The modifications to the ECG, mean arterial pressure (MAP) and the heart rate were measured before and during the occlusion-reperfusion period. The definitions of the arrhythmias are based on those described in the Lambeth conventions (Walker and al., The Lambeth conventions: guidelines for the study of arrhythmias in ischaemia infarction, and reperfusion, Cardiovascular Research, 1988, 22(7), 447-455). The ectopic activity has been categorized as a single ventricular premature beat (VPB), a ventricular tachycardia (VT, four or more consecutive VPBs) or a ventricular fibrillation (VF, inability to distinguish individual QRS complexes and to measure the rate). The arterial pressure traces were referred to in order to confirm which type of ectopic activity was produced, in particular to distinguish between polymorphic VT and VF. When the first is produced, the arterial pressure is generally still pulsatile whereas with VF, the arterial pressure falls rapidly towards zero and is no longer pulsatile. The VF can be sustained or can spontaneously return to a normal sinusoidal rhythm in rats. In all the experiments, the incidences of TV and VF as well as the duration of the ventricular tachycardia were noted.
The heart was then exposed by a left intercostal thoracotomy. After opening the pericardium, a 6.0 silk stitch was placed around the left coronary artery on a polypropylene tube in order to form a collar. The hearts were subjected to an ischaemia for 7 minutes by tightening the suture 5 minutes after the treatment. Finally, the collar occluder was released in order to allow the reperfusion of the myocardial tissue for 10 minutes. At the end of the reperfusion period, the rats were euthanised by cervical dislocation while still anaesthetised.
The means± the standard error on the mean are presented.
The statistical analysis was carried out using the GraphPad Prism 5 software. The Fisher test was used to analyse the differences between the incidences of arrhythmias, while the chi-squared test was used to compare the incidence of mortality. The Kruskall-Wallis test was used to analyse the differences between the duration of the tachycardia and the ventricular fibrillations and the difference in the number of ventricular fibrillations.
The rats were treated by the intravenous route with a saline solution, a compound of formula I-C at 185 mg/kg (30 minutes before the ischaemia) or cariporide at 0.3 mg/kg (5 minutes before the ischaemia). The animals were subjected to a 7-minute ischaemia and a 10-minute reperfusion. Throughout the experimental phase, the arterial pressure and ECG profiles were recorded continuously. Blood was sampled 5 minutes after the end of the reperfusion and the heart was weighed.

[2] = test system: arrhythmias induced by doxorubicin; experiment: Arrhythmia induced by doxorubicin in mice, heart rate by ECG; format: in vivo; settings: for heart rate 5 days after the injection of DOX (effect in words): vs DOX + carrier
Description: The goal of this study was to evaluate the effects of an i.p. administration of compounds I-C, I-J and I-K, at 180 mg/kg, on arrhythmias induced by doxorubicin. 76 male mice, 8 weeks old on arrival, were obtained from Janvier Labs, Le Genest St Isle, 53941 St Berthevin, France. Each animal was identified with an electronic chip. The powder of compounds I-C, I-J and I-K (180 mg/kg) was dissolved in the carrier (the solution was used at ambient temperature for a maximum of 1 day). […] Doxorubicin was prepared at 2 mg/mL and the administration volume was 10 mL/kg. The control group received an injection of saline solution. Each group comprises 14 to 24 mice. As indicated in the regulations relating to non-clinical laboratory studies, the groups of test and control animals have been kept under identical conditions. The envisaged duration of the study was 11 days. […] The treatment with compounds I-C, I-J and I-K was initiated after 5 days before the injection of DOX, once per day from Day 5 to Day 0. The mice were treated i.p with compounds I-C, I-J and I-K 30 minutes before the injection of DOX. The mice were treated i.p with compounds I-C, I-J and I-K during the duration of the experiment (J0 to J5) once per day. […] In particular, the heart rate was evaluated during the ECG: […]

[3] = test system: infarction; settings: ischaemia of at least 30 minutes and reperfusion of at least 60 minutes; cited from earlier work
[4] = DOX 20 mg/kg i.p. + compound 180 mg/kg i.p. once per day
[5] = 185 mg/kg iv 30 minutes before ischaemia, 7-minute ischaemia
[6] = 185 mg/kg iv, 10-minute reperfusion

CC(C)c1ccc(C(=O)NC(=N)N)cc1S(C)(=O)=O [Cariporide, reference compound]
ventricular fibrillation during the ischaemia (effect in words) [1]: removed
ventricular tachycardia during the ischaemia (effect in words) [1]: removed
incidence of ventricular tachycardia during reperfusion (effect in words) ([1]; 10-minute reperfusion): no beneficial effect
duration of ventricular tachycardia during reperfusion (effect in words) ([1]; 10-minute reperfusion): tendency to be shorter
ventricular fibrillation during reperfusion (effect in words) ([1]; 10-minute reperfusion): removed
mortality during the reperfusion period (effect in words) [1]: removed

NC(=O)c1ccc[n+]([C@@H]2O[C@H](COP(=O)([O-])O)[C@@H](O)[C@H]2O)c1 [I-C]
heart rate 5 days after the injection of DOX (effect in words) [2, 4]: increase in heart rates; also recorded: significantly attenuated
duration of ventricular tachycardia during the ischaemia [1, 5]: 0.2 ± 0.2 s
incidence of ventricular tachycardia during the ischaemia [1, 5]: approximately 9%
duration of ventricular fibrillation during reperfusion [1, 6]: 4.0±2.3 % of the duration of the reperfusion
incidence of ventricular fibrillation during reperfusion [1, 6]: approximately 55%
number of ventricular fibrillations during reperfusion [1, 6]: approximately one
ventricular fibrillation during the ischaemia (effect in words) [1]: remove the ventricular fibrillation
ventricular tachycardia during the ischaemia (effect in words) [1]: significantly reduce the incidence and duration
incidence of ventricular tachycardia during reperfusion (effect in words) ([1]; 10-minute reperfusion): no effect
duration of ventricular tachycardia during reperfusion (effect in words) ([1]; 10-minute reperfusion): appeared to reduce the duration
ventricular fibrillation during reperfusion (effect in words) ([1]; 10-minute reperfusion): tendency to reduce the incidence
mortality during the reperfusion period (effect in words) [1]: removed mortality

NC(=O)c1ccc[n+]([C@@H]2O[C@H](COP(=O)([O-])OP(=O)([O-])OC[C@H]3O[C@H]([n+]4cccc(C(N)=O)c4)[C@H](O)[C@@H]3O)[C@@H](O)[C@H]2O)c1 [I-J]
heart rate 5 days after the injection of DOX [2, 4]: 470.1±18.8 bpm
heart rate 5 days after the injection of DOX (effect in words) [2, 4]: increase in heart rates; also recorded: significantly attenuated

NC(=O)c1ccc[n+]([C@H]2O[C@H](COP(=O)([O-])OP(=O)([O-])OC[C@H]3O[C@H]([n+]4cccc(C(N)=O)c4)[C@H](O)[C@@H]3O)[C@@H](O)[C@H]2O)c1 [I-K]
heart rate 5 days after the injection of DOX (effect in words) [2, 4]: increase in heart rates; also recorded: significantly attenuated

NC(=O)c1ccc[n+]([C@@H]2O[C@H](COP(=O)([O-])O)[C@@H](O)[C@H]2O)c1 [NMN, Nicotinamide Mononucleotide]
protective effect against infarction [3]: protects the heart

COc1cccc2c1C(=O)c1c(O)c3c(c(O)c1C2=O)C[C@@](O)(C(=O)CO)C[C@@H]3O[C@H]1C[C@H](N)[C@H](O)[C@H](C)O1 [doxorubicin, reference compound]
heart rate 5 days after the injection of DOX ([2]; DOX 20 mg/kg i.p. + carrier, control mice 525.6±19.8 bpm): 365.1±23.9 bpm
